Measured values published in patent US20100016358A1, “GAMMA-GLOBIN INDUCER” (KOWA CO., LTD., priority 2006, published 2010).
Where a name gives a salt, the structure may show the parent alone.

Tests used:
Assay type in all cases: cell-based, human
K562 cells [1] = experiment: Measurement of the amount of hemoglobin produced by K562 cells (porphyrin fluorescence); details: for hemoglobin production promoting action: FIG. 1
Procedure: Compound 1 was synthesized through a method disclosed in International publication WO 03/02703 (Example 13) and dissolved in dimethyl sulfoxide (DMSO). The concentration of the solution was adjusted as appropriate through dilution. An equiamount of DMSO was employed as a control solution.
Cells of human proerythroblast cell line K562 (obtained from ATCC) were added to a complete culture medium (RPMI-1640 medium containing 10% fetal bovine serum), and the resultant cells (1×10^5 cells/mL) were seeded into each well of 24-well plate (2 mL/well). A solution of compound 1 (×1000) was added to the plate (2 μL/well), and cells were cultured in a CO2 incubator (37° C., 5% CO2) for three days. The medium was renewed, and cells were further cultured for three days.
The cultured cells were collected and counted. The number of cells in each sample was adjusted to 3×10^5, and the intensity of the fluorescence attributed to a porphyrin ring was measured, to thereby determine the hemoglobin level. Specifically, cells collected through centrifugation were suspended in 2M oxalic acid (500 μL), and the suspension was boiled for 30 minutes and cooled. Fluorescence intensity was measured by means of a fluorescence microplate reader (Spectra MAX Gemini EM, product of Molecular Device) ([…]).

[2] = test system: γ-globin mRNA in K562 cells; experiment: γ-globin mRNA level in K562 cells by real-time PCR (TaqMan); details: 0.3-μM-added group, cultured three days
Procedure: K562 cells (1×10^5 cells/mL) were seeded into each well of 6-well plate (4 mL/well). A solution of compound 1 (×1000) was added to the plate (4 μL/well), and cells were cultured in a CO2 incubator (37° C., 5% CO2) for three days. The cultured cells were collected, and RNA was prepared from the cells by means of a RNeasy mini column (product of Qiagen). Subsequently, cDNA was synthesized from the thus-obtained RNA by use of reverse transcriptase. Through real-time PCR employing a TaqMan probe according to a protocol of Applied Bio-Systems, γ-globin mRNA level was determined (ABI PRISM7900HT System, product of Applied Bio-Systems). In Example 2, the following primers and probe were employed (SEQ ID NOs: 1 to 3): […]
forward primer (GGTTCTTTGACAGCTTTG, SEQ ID NO: 1);
reverse primer (CCTTCTTGCCATGTGCCTT, SEQ ID NO: 2); and
fluorescence probe (CCTCTGCCTCTGCCATC, SEQ ID NO: 3).
These primers and probe are custom synthesis products of Qiagen.

K562 cells [3] = experiment: HbF-producing cells (F cells) in K562 cell population by flow cytometry with FITC-labeled anti-HbF antibody; details: 0.1-μM compound, cultured three days
Procedure: K562 cells (1×10^5 cells/mL) were seeded into each well of 24-well plate (2 mL/well). A solution of compound 1 (×1000) was added to the plate (2 μL/well), and cells were cultured in a CO2 incubator (37° C., 5% CO2) for three days. The cultured cells were collected through centrifugation and treated for 10 minutes with phosphate buffered saline (PBS) containing 0.05% glutaraldehyde/0.1% bovine serum albumin (BSA). The liquid was removed from the mixture through centrifugation, to thereby obtain pellets. Subsequently, 0.1% BSA/PBS was added to the separated pellets, and the same treatment was performed three times, to thereby wash the cells. The thus-washed cells were subjected, for five minutes, to permeation treatment with 0.1% BSA/PBS containing 1% Triton X-100 (0.5 mL) and washed once again. The resultant cells were suspended in 0.1% BSA/PBS (80 μL). FITC-labeled anti-HbF antibody (10 μg/mL, product of Caltag) (5 μL) was added to the suspension, and the mixture was allowed to react at room temperature in the dark for 15 minutes, whereby HbF present in the cells was immunostained. In a similar manner as described above, the stained cells were washed and suspended in 0.1% BSA/PBS containing 1% formaldehyde (0.5 mL). The suspension was analyzed through a method known in the art, by means of a flow cytometer (EPICS XL, product of Beckman Coulter, Inc.).

Compound: COc1ccc(N(Cc2cncc(-c3cc(OC)c(OC)c(OC)c3)c2)C2CCN(Cc3ccnc(-c4cc(OC)c(OC)c(OC)c4)c3)CC2)cc1 [compound 1, 4-[N-(4-Methoxyphenyl)-N-[[5-(3,4,5-trimethoxyphenyl)pyridin-3-yl]methyl]amino]-1-[[2-(3,4,5-trimethoxyphenyl)pyridin-4-yl]methyl]piperidine]
- amount of hemoglobin produced (compound-non-added group = 100%) (K562 cells [1]; 0.3-μM-added group, cultured 3 + 3 days): 435%
- hemoglobin production promoting action (K562 cells [1]): promotes production of hemoglobin in a concentration (dose)-dependent manner
- amount of γ-globin mRNA produced (compound-non-added group = 1) [2]: about four fold
- number of HbF-expressing cells (F cells) (K562 cells [3]): almost doubled

Compound: COc1cc(C(=O)OCCCN2CCCN(CCCOC(=O)c3cc(OC)c(OC)c(OC)c3)CC2)cc(OC)c1OC [dilazep hydrochloride, Dilazep hydrochloride, reference compound]
- hemoglobin production promoting action (K562 cells [1]): did not exhibit hemoglobin production promoting action
